Results from US20150284335A1, “Benzoimidazoles as prolyl hydroxylase inhibitors” (Janssen Pharmaceutica NV, priority 2008, published 2015).
Marks after values point to notes of the source that are not given here.

Key:
[1] = tested on: Hep-3B cells; experiment: Cellular assay: EPO secretion in Hep-3B cells; assay type: cell-based, human; conditions: 24 hours, percent of EPO secretion relative to assay control compound
[2] = target: T1, PHD2181-417 (Homo sapiens, UniProt Q9GZT9); experiment: PHD enzyme activity assay ([14C]-succinic acid production); assay type: biochemical; conditions: inhibition of PHD2181-417 activity; HIF-1α peptide 10 μM, [5-14C]-2-oxoglutaric acid, 10 minutes; read-out: Enzyme pIC50 (converted);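 note: enzyme expressed in E. coli BL21, assayed in Tris-HCl pH 7.5 with catalase, DTT and ascorbate, [14C]-succinic acid beta-counted after DNP precipitation of residual 2-oxoglutarate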
T1 construct: histidine tag (N, cleaved yes); Smt3 (SUMO) tag (N, cleaved yes); made in house; host or cells: E. coli BL21 (pBAD vector)
T1 sequence (Q9GZT9 181-417): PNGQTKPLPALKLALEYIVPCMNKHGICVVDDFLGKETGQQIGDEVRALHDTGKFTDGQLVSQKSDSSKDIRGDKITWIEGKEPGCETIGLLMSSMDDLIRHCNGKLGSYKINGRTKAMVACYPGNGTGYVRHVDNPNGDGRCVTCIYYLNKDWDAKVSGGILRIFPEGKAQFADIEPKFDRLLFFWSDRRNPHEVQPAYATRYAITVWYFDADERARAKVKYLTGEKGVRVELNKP

[3] = final compound concentration 100 μM
[4] = final compound concentration of 10 μM

SMILES | IC50 [2] [µM] | Cellular % EPO Stimulation [1, 3] [%] | Cellular % EPO Stimulation [1, 4]
C[C@H](NC(=O)c1nc2ccc(F)cc2[nH]1)C(=O)O [Example 10, (S)-2-[(6-Fluoro-1H-benzoimidazole-2-carbonyl)-amino]-propionic acid] | > 100 | 14.74 | –
O=C(O)CNC(=O)c1nc2cc(-c3cc(F)cc(OCc4ccccc4)c3)ccc2[nH]1 [Example 19, {[5-(3-Benzyloxy-5-fluoro-phenyl)-1H-benzoimidazole-2-carbonyl]-amino}-acetic acid] | 6.31 | −3.80 | –
O=C(O)CNC(=O)c1nc2cc(-c3cccc(OCc4cccc(F)c4)c3)ccc2[nH]1 [Example 16, ({5-[3-(3-Fluoro-benzyloxy)-phenyl]-1H-benzoimidazole-2-carbonyl}-amino)-acetic acid] | 2.51 | 2.10 | –
O=C(O)CNC(=O)c1nc2cc(-c3cccc(OCc4ccc(Cl)cc4)c3)ccc2[nH]1 [Example 15, ({5-[3-(4-Chloro-benzyloxy)-phenyl]-1H-benzoimidazole-2-carbonyl}-amino)-acetic acid] | 2.51 | −3.90 | –
O=C(O)CNC(=O)c1nc2cc(-c3ccc(OCc4cccc(Cl)c4)c(Cl)c3)ccc2[nH]1 [Example 21, ({5-[3-Chloro-4-(3-chloro-benzyloxy)phenyl]-1H-benzoimidazole-2-carbonyl}-amino)-acetic acid] | 7.94 | −1.43 | –
O=C(O)CNC(=O)c1nc2cc(-c3cnc4ccccc4c3)ccc2[nH]1 [Example 20, [(5-Quinolin-3-yl-1H-benzoimidazole-2-carbonyl)-amino]-acetic acid] | 1.58 | 8.26 | –
O=C(O)CNC(=O)c1nc2ccc([N+](=O)[O-])cc2[nH]1 [Example 5, [(6-Nitro-1H-benzoimidazole-2-carbonyl)-amino]-acetic acid] | 5.01 | 0.00 | –

Continued, in another order:

IC50 [2] [µM] | SMILES | Cellular % EPO Stimulation [1, 3] [%] | Cellular % EPO Stimulation [1, 4]
31.6 | O=C(O)CNC(=O)c1nc2ccc(NS(=O)(=O)c3ccccc3)cc2[nH]1 [Example 30, [(6-Benzenesulfonylamino-1H-benzoimidazole-2-carbonyl)-amino]-acetic acid] | 1.10 | –
> 100 | C[C@@H](NC(=O)c1nc2cc(Cl)c(Cl)cc2[nH]1)C(=O)O [Example 53, (R)-2-[(5,6-Dichloro-1H-benzoimidazole-2-carbonyl)-amino]-propionic acid] | – | 11.3* %
25.1 | O=C(O)CNC(=O)c1nc2cc(-c3cc(Cl)ccc3F)ccc2[nH]1 [Example 28, {[5-(5-Chloro-2-fluoro-phenyl)-1H-benzoimidazole-2-carbonyl]-amino}-acetic acid] | 1.40 | –
12.6 | O=C(O)CNC(=O)c1nc2cc(-c3ccc4ccccc4c3)ccc2[nH]1 [Example 25, [(5-Naphthalen-2-yl-1H-benzoimidazole-2-carbonyl)-amino]-acetic acid] | 2.10 | –
20 | O=C(NC(CO)C(=O)O)c1nc2ccccc2[nH]1 (stereo in doubt) [Example 51, (R)-2-[(1H-Benzoimidazole-2-carbonyl)-amino]-3-hydroxy-propionic acid] | – | 0.73* %
12.6 | Cc1cc(-c2ccc3[nH]c(C(=O)NCC(=O)O)nc3c2)cc(C)c1OCc1cccc(Cl)c1 [Example 22, ({5-[4-(3-Chloro-benzyloxy)-3,5-dimethyl-phenyl]-1H-benzoimidazole-2-carbonyl}-amino)-acetic acid] | −1.06 | –
0.1 | O=C(O)c1cnn(-c2nc3cc(Cl)c(Cl)cc3[nH]2)c1 [Example 33, 1-(5,6-Dichloro-1H-benzoimidazol-2-yl)-1H-pyrazole-4-carboxylic acid] | 168.46 | –
0.0398 | O=C(O)c1cnn(-c2nc3cc(-c4cccc(OCc5ccc(Cl)cc5)c4)ccc3[nH]2)c1 [Example 45, 1-{5-[3-(4-Chloro-benzyloxy)-phenyl]-1H-benzoimidazol-2-yl}-1H-pyrazole-4-carboxylic acid] | 2.10 | –
15.8 | O=C(O)CNC(=O)c1nc2cc(-c3cc(C(=O)NCc4ccccc4)ccc3F)ccc2[nH]1 [Example 24, {[5-(5-Benzylcarbamoyl-2-fluoro-phenyl)-1H-benzoimidazole-2-carbonyl]-amino}-acetic acid] | 13.56 | –
